Assay results reported in US20080318977A1, “Condensed Pyridines as Kinase Inhibitors” (Palau Pharma, S.A., priority 2004, published 2008).

target: T1, p38α (Homo sapiens, UniProt Q16539); test: Inhibition of p38α enzyme activity (IMAP fluorescence polarisation kinase assay); assay type: biochemical; conditions: at 1 μM compound; ATP 20 μM; 2 h at RT
T1 construct: GST-tagged fusion protein corresponding to full-length human p38α; purchased Upstate 14-251; host or cells: E. coli
Experimental: Inhibition of p38α Enzyme Activity:
Compound stocks in 100% DMSO are first diluted in DMSO to a concentration of 1×10^−3 up to 3.2×10^−8 M and then further diluted in kinase assay buffer (10 mM Tris-HCl, pH 7.2, 10 mM MgCl2, 0.01% tween 20, 0.05% NaN3, 1 mM dithiothreitol) to a concentration range of 4×10^−5 up to 1.3×10^−9 M. Of each compound solution 5 μL is transferred into a 384-wells black Optiplate (Packard, 6007279), followed by the addition of 5 μL of ATP (Boehringer, 519987), 5 μL of Fluorescein-labeled EGFR (Epidermal Growth Factor Receptor) peptide substrate and 5 μL of active p38 cc kinase (GST-tagged fusion protein corresponding to full-length human p38α; expressed in E. coli by Upstate, 14-251), all diluted in kinase assay buffer (see final concentrations in Table 1). The mixture is incubated for 2 h at room temperature (RT). The reaction is stopped by the addition of 60 μL of IMAP binding reagent, which has been diluted 400-fold in IMAP binding buffer (stock concentration 5 times diluted in Milli Q). After incubation for 30 min at RT, FP is measured on an Analyst™ multimode fluorescence plate reader (Molecular Devices) at excitation wavelength of 485 nm and emission wavelength of 530 nm (1 sec/well).
Data handling is performed as follows: percentage effects are calculated based on no-p38-enzyme-addition as the maximum inhibitory effect and with p38 enzyme addition as the minimum inhibitory effect. In each experiment, individual compound concentrations are tested in duplicate and percentage effect is calculated for each concentration.

T1 sequence (Q16539 whole entry, the tested form may be a part): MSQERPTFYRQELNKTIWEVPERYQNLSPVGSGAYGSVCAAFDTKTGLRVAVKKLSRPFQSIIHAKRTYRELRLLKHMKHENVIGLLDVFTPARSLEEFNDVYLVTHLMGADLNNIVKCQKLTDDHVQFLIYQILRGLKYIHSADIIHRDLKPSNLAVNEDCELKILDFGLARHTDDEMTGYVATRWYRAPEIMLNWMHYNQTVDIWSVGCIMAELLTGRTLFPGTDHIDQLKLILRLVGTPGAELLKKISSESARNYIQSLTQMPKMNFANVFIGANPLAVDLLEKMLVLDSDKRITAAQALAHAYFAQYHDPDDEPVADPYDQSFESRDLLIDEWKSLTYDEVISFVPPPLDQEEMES

inhibition at 1 µM [%]	Structure (SMILES)
> 50	COC(=O)c1cc2c(-c3ccc(F)cc3)c(-c3ccncc3)c(-c3ccc(F)cc3)nc2o1 [Example 2, Methyl 4,6-bis(4-fluorophenyl)-5-(4-pyridyl)furo[2,3-b]pyridine-2-carboxylate]
> 50	COC(=O)c1cc2nc(-c3ccc(F)cc3)c(-c3ccncc3)c(-c3ccc(F)cc3)c2n1C [Example 3, Methyl 5,7-bis(4-fluorophenyl)-1-methyl-6-(4-pyridyl)pyrrolo[3,2-b]pyridine-2-carboxylate]
> 50	CCOC(=O)c1nc2nc(-c3ccc(F)cc3)c(-c3ccncc3)c(-c3ccc(F)cc3)c2n1C [Example 5, Ethyl 5,7-bis(4-fluorophenyl)-1-methyl-6-(4-pyridyl)imidazo[4,5-b]pyridine-2-carboxylate]
> 50	Cn1c(CO)cc2nc(-c3ccc(F)cc3)c(-c3ccncc3)c(-c3ccc(F)cc3)c21 [Example 6, [5,7-Bis(4-fluorophenyl)-1-methyl-6-(4-pyridyl)pyrrolo[3,2-b]pyridin-2-yl]methanol]
> 50	Cn1c(CO)nc2nc(-c3ccc(F)cc3)c(-c3ccncc3)c(-c3ccc(F)cc3)c21 [Example 7, [5,7-Bis(4-fluorophenyl)-1-methyl-6-(4-pyridyl)imidazo[4,5-b]pyridin-2-yl]methanol]
> 50	Cn1cnc2nc(-c3ccc(F)cc3)c(-c3ccncc3)c(-c3ccc(F)cc3)c21 [Example 10, 5,7-Bis(4-fluorophenyl)-1-methyl-6-(4-pyridyl)imidazo[4,5-b]pyridine]
> 50	Cn1c(C(N)=O)cc2nc(-c3ccc(F)cc3)c(-c3ccncc3)c(-c3ccc(F)cc3)c21 [Example 12, 5,7-Bis(4-fluorophenyl)-1-methyl-6-(4-pyridyl)pyrrolo[3,2-b]pyridine-2-carboxamide]
> 50	Cn1c(C(=O)NCCO)cc2nc(-c3ccc(F)cc3)c(-c3ccncc3)c(-c3ccc(F)cc3)c21 [Example 13, 5,7-Bis(4-fluorophenyl)-N-(2-hydroxyethyl)-1-methyl-6-(4-pyridyl)pyrrolo[3,2-b]pyridine-2-carboxamide]
> 50	Cn1c(C(=O)N2CCOCC2)cc2nc(-c3ccc(F)cc3)c(-c3ccncc3)c(-c3ccc(F)cc3)c21 [Example 14, [5,7-Bis(4-fluorophenyl)-1-methyl-6-(4-pyridyl)pyrrolo[3,2-b]pyridin-2-yl]morpholin-4-ylmethanone]
> 50	CC(C)(O)c1cc2c(-c3ccc(F)cc3)c(-c3ccncc3)c(-c3ccc(F)cc3)nc2o1 [Example 16, 2-[4,6-Bis-(4-fluorophenyl)-5-(4-pyridyl)furo[2,3-b]pyridin-2-yl]propan-2-ol]
> 50	Cn1c(C(C)(C)O)nc2nc(-c3ccc(F)cc3)c(-c3ccncc3)c(-c3ccc(F)cc3)c21 [Example 18, 2-[5,7-Bis(4-fluorophenyl)-1-methyl-6-(4-pyridyl)imidazo[4,5-b]pyridin-2-yl]propan-2-ol]
> 50	CC(=O)c1nc2nc(-c3ccc(F)cc3)c(-c3ccncc3)c(-c3ccc(F)cc3)c2n1C [Example 19, 1-[5,7-Bis(4-fluorophenyl)-1-methyl-6-(4-pyridyl)imidazo[4,5-b]pyridin-2-yl]ethanone]
> 50	Cn1c(C(C)(C)O)cc2nc(-c3ccc(F)cc3)c(-c3ccncc3)c(-c3ccc(F)cc3)c21 [Example 20, 2-[5,7-Bis(4-fluorophenyl)-1-methyl-6-(4-pyridyl)pyrrolo[3,2-b]pyridin-2-yl]propan-2-ol]
> 50	CC(=O)c1cc2nc(-c3ccc(F)cc3)c(-c3ccncc3)c(-c3ccc(F)cc3)c2n1C [Example 21, 1-[5,7-Bis(4-fluorophenyl)-1-methyl-6-(4-pyridyl)pyrrolo[3,2-b]pyridin-2-yl]ethanone]
> 50	OCc1cc2c(-c3ccc(F)cc3)c(-c3ccncc3)c(-c3ccc(F)cc3)nc2o1 [Example 22, [4,6-Bis(4-fluorophenyl)-5-(4-pyridyl)furo[2,3-b]pyridin-2-yl]methanol]
> 50	O=C(NCCN1CCOCC1)c1cc2c(-c3ccc(F)cc3)c(-c3ccncc3)c(-c3ccc(F)cc3)nc2o1 [Example 25, 4,6-Bis-(4-fluoro-phenyl)-5-pyridin-4-yl-furo[2,3-b]pyridine-2-carboxylic acid (2-morpholin-4-yl-ethyl)-amide]
> 50	O=C(NCCN1CCCCC1)c1cc2c(-c3ccc(F)cc3)c(-c3ccncc3)c(-c3ccc(F)cc3)nc2o1 [Example 26, 4,6-Bis-(4-fluoro-phenyl)-5-pyridin-4-yl-furo[2,3-b]pyridine-2-carboxylic acid (2-piperidin-1-yl-ethyl)-amide]
> 50	O=C(NCCO)c1cc2c(-c3ccc(F)cc3)c(-c3ccncc3)c(-c3ccc(F)cc3)nc2o1 [Example 27, 4,6-Bis-(4-fluoro-phenyl)-5-pyridin-4-yl-furo[2,3-b]pyridine-2-carboxylic acid (2-hydroxy-ethyl)-amide]
> 50	COCCNC(=O)c1cc2nc(-c3ccc(F)cc3)c(-c3ccncc3)c(-c3ccc(F)cc3)c2n1C [Example 28, 5,7-Bis-(4-fluoro-phenyl)-1-methyl-6-pyridin-4-yl-1H-pyrrolo[3,2-b]pyridine-2-carboxylic acid (2-methoxy-ethyl)-amide]
> 50	CCCNC(=O)c1cc2nc(-c3ccc(F)cc3)c(-c3ccncc3)c(-c3ccc(F)cc3)c2n1C [Example 29, 5,7-Bis-(4-fluoro-phenyl)-1-methyl-6-pyridin-4-yl-1H-pyrrolo[3,2-b]pyridine-2-carboxylic acid propylamide]
> 50	Cn1c(C(=O)NCCN2CCOCC2)cc2nc(-c3ccc(F)cc3)c(-c3ccncc3)c(-c3ccc(F)cc3)c21 [Example 30, 5,7-Bis-(4-fluoro-phenyl)-1-methyl-6-pyridin-4-yl-1H-pyrrolo[3,2-b]pyridine-2-carboxylic acid (2-morpholin-4-yl-ethyl)-amide]
> 50	Cn1c(C(=O)NCCN2CCCCC2)cc2nc(-c3ccc(F)cc3)c(-c3ccncc3)c(-c3ccc(F)cc3)c21 [Example 31, 5,7-Bis-(4-fluoro-phenyl)-1-methyl-6-pyridin-4-yl-1H-pyrrolo[3,2-b]pyridine-2-carboxylic acid (2-piperidin-1-yl-ethyl)-amide]
> 50	COCCNCc1cc2nc(-c3ccc(F)cc3)c(-c3ccncc3)c(-c3ccc(F)cc3)c2n1C [Example 32, [5,7-Bis-(4-fluoro-phenyl)-1-methyl-6-pyridin-4-yl-1H-pyrrolo[3,2-b]pyridin-2-ylmethyl]-(2-methoxy-ethyl)-amine]
> 50	Cn1c(CNCC2CC2)cc2nc(-c3ccc(F)cc3)c(-c3ccncc3)c(-c3ccc(F)cc3)c21 [Example 33, [5,7-Bis-(4-fluoro-phenyl)-1-methyl-6-pyridin-4-yl-1H-pyrrolo[3,2-b]pyridin-2-ylmethyl]-cyclopropylmethyl-amine]
> 50	COC(=O)CNCc1cc2nc(-c3ccc(F)cc3)c(-c3ccncc3)c(-c3ccc(F)cc3)c2n1C [Example 34, {[5,7-Bis-(4-fluoro-phenyl)-1-methyl-6-pyridin-4-yl-1H-pyrrolo[3,2-b]pyridin-2-ylmethyl]-amino}-acetic acid methyl ester]
